Experimental data reported in US9061984B2 (University of Louisville Research Foundation, Inc., priority 2008, dated 2015).
≈ marks a conversion by molar mass, not a printed value. Like-named read-outs stand apart in the source and are kept apart here.

Tests used:
[1] = test system: Trypanosoma cruzi (Tulahuen C4); assay: In vitro anti-T. cruzi activity (β-galactosidase CPRG colorimetric assay in VERO monolayer); type: cell-based; details: for Selectivity Index Lab B: IC50, VERO/IC50, T. cruzi
[2] = test system: axenic amastigotes of L. amazonensis (strain MHOM/BR/76/LTB-012); details: Table 8b; for IC50: read-out: L. amazonensis IC50
3T3 cells = assay: Cell growth inhibition bioassay (sulforhodamine B); type: cell-based, mouse; details: 48 h, SRB; for GI50: Mus musculus, NIH3T3, read-out: GI50 in indicated cell line: 3T3
Procedure, shortened: (§1)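 Cells were exposed to compound alongside matched solvent controls, then stained with sulforhodamine B. Percent growth inhibition was calculated from dye absorbance against the control.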

DU145 cells = assay: Cell growth inhibition bioassay (sulforhodamine B); type: cell-based, human; details: 48 h, SRB; for GI50: Homo sapiens, DU-145, read-out: GI50 in indicated cell line: DU145
Procedure, shortened: (§2)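 Human cancer cells (MCF-7 breast, DU145 and PC3 prostate, H460 large cell lung) were treated with compounds. Growth relative to solvent control was quantified by SRB protein stain.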

HT-29 cells = assay: Cell growth inhibition bioassay (sulforhodamine B); type: cell-based, human; details: 48 h, SRB; for GI50: Homo sapiens, HT-29, read-out: GI50 in indicated cell line: HT-29
Procedure, shortened: as §1

MCF-7 cells = assay: Cell growth inhibition bioassay (sulforhodamine B); type: cell-based, human; details: 48 h, SRB; for GI50: Homo sapiens, MCF7, read-out: GI50 in indicated cell line: MCF-7
Procedure, shortened: as §2

M-14 cells = assay: Cell growth inhibition bioassay (sulforhodamine B); type: cell-based, human; details: 48 h, SRB; for GI50: Homo sapiens, M14, read-out: GI50 in indicated cell line: M-14
Procedure, shortened: as §1

K562 cells = assay: Cell growth inhibition bioassay (sulforhodamine B); type: cell-based, human; details: 48 h, SRB; for GI50: Homo sapiens, K562, read-out: GI50 in indicated cell line: K562
Procedure, shortened: as §1

H460 cells = assay: Cell growth inhibition bioassay (sulforhodamine B); type: cell-based, human; details: 48 h, SRB; for GI50: Homo sapiens, NCI-H460, read-out: GI50 in indicated cell line: H460
Procedure, shortened: as §1

[3] = test system: non-replicating persistence Mycobacterium tuberculosis (NRP-TB); assay: Low oxygen recovery assay (LORA); type: cell-based; details: value in brackets; for MIC: Mycobacterium tuberculosis, anaerobic 10 days, 28 hour recovery; for Selectivity Index LORA: VERO vs LORA MIC
[4] = Toxicity to peritoneal macrophages (Trypan Blue count); type: cell-based, BALB/C mouse; details: BALB/C, mouse
VERO cells [5] = assay: Cell growth inhibition bioassay (sulforhodamine B); type: cell-based, African Green Monkey; details: 48 h, SRB; for GI50: Chlorocebus sabaeus, Vero, read-out: GI50 in indicated cell line: VERO
Procedure, shortened: as §1

M. tuberculosis H37Rv [6] = assay: Conventional aerobic (MABA) culture assay, luminescence MIC; type: cell-based, Mycobacterium tuberculosis; details: for MIC: Mycobacterium tuberculosis, 168 h; for MIC / MIC MABA: aerobic, 7 days, H37Rv; for Selectivity Index H37Rv: VERO vs MABA MIC
[7] = Cytotoxicity on VERO cells (MTT), anti-T. cruzi study; details: African green monkey, VERO cells, Cytotoxicity VERO Lab B, Lab B
[8] = test system: axenic amastigotes of L. amazonensis (strain MHOM/BR/76/LTB-012); assay: microbe, parasite or virus in culture; details: Leishmania amazonensis
[9] = Cytotoxicity VERO cell (Table 6); details: African green monkey, VERO cells
M. tuberculosis MDR = assay: Anti-tuberculosis bioassay (tetrazolium microplate MIC); type: cell-based; details: Mycobacterium tuberculosis, read-out: Mycobacterium MIC MDR
M. tuberculosis H37Rv [10] = assay: as above; type: cell-based; details: Mycobacterium tuberculosis, read-out: Mycobacterium MIC H37Rv, Table 5
peritoneal macrophages = assay: Toxicity to peritoneal macrophages (Trypan Blue count); type: cell-based, BALB/C mouse
VERO cells [11] = assay: Cytotoxicity on VERO cells (MTT), anti-T. cruzi study; details: Lab B
VERO cell = assay: Cytotoxicity VERO cell (Table 6); details: Table 6
[12] = Trypanosoma cruzi, TULAHUEN, Vero, Lab A, read-out: T. cruzi IC50 Lab A
[13] = Trypanosoma cruzi, TULAHUEN, Vero, Lab B, read-out: T. cruzi IC50 Lab B

C(=N/Nc1ncnc2sc3c(c12)CCCC3)/c1ccco1 [II-18]
Selectivity Index Lab B ([1]; Lab B): 0.6
IC50 [1, 12]: 1.2 mg/L (≈ 4.02 µM)
IC50 [1, 13]: 4.8 mg/L (≈ 16.1 µM)
Selectivity Index [2]: 0.6
GI50 (3T3 cells): 2.3 mg/L (≈ 7.71 µM)
GI50 (DU145 cells): 4.7 mg/L (≈ 15.8 µM)
GI50 (HT-29 cells): 2.5 mg/L (≈ 8.38 µM)
GI50 (MCF-7 cells): 0.3 mg/L (≈ 1.01 µM)
GI50 (M-14 cells): 3.3 mg/L (≈ 11.1 µM)
GI50 (K562 cells): 1.2 mg/L (≈ 4.02 µM)
GI50 (H460 cells): 2.1 mg/L (≈ 7.04 µM)
MIC [3]: 2.9 mg/L (≈ 9.72 µM)
Selectivity Index LORA [3]: 4.3
IC50 at 48 h ([4]; Cytotoxicity Macrophages IC50): 0.7 µM
GI50 (VERO cells [5]): 2.6 mg/L (≈ 8.71 µM)
MIC (M. tuberculosis H37Rv [6]): 11.9 mg/L (≈ 39.9 µM)
Selectivity Index H37Rv (M. tuberculosis H37Rv [6]): 1.0
IC50 [7]: 3 mg/L (≈ 10.1 µM)
IC50 ([8]; read-out: L. amazonensis IC50): 1.2 µM
IC50 [9]: 12.3 mg/L (≈ 41.2 µM)

O=[N+]([O-])c1ccc(/C=N\Nc2ncnc3sc4c(c23)CCCC4)cc1 [II-22]
inhibition at 10 µg/mL ([1]; Trypanosoma cruzi, TULAHUEN, Vero, 120 h, 10 μg/mL of each compound, 120 hours, read-out: T. cruzi Inhib. (%)): 11.6%
MIC (M. tuberculosis MDR): > 25 mg/L
Selectivity Index [2]: 5.2
GI50 (3T3 cells): > 62.5 mg/L
GI50 (DU145 cells): > 62.5 mg/L
GI50 (HT-29 cells): > 62.5 mg/L
GI50 (MCF-7 cells): > 62.5 mg/L
GI50 (M-14 cells): > 62.5 mg/L
GI50 (K562 cells): > 62.5 mg/L
GI50 (H460 cells): > 62.5 mg/L
IC50 at 48 h ([4]; Cytotoxicity Macrophages IC50): 70.4 µM
IC50 at 48 h ([4]; IC50 Cytotoxicity Against Macrophages): > 10 µM
GI50 (VERO cells [5]): > 62.5 mg/L
MIC (M. tuberculosis H37Rv [6]): > 100 mg/L
IC50 ([8]; read-out: IC50 Cytotoxicity Against Amastigotes): 33.8 µM
IC50 ([8]; read-out: L. amazonensis IC50): 13.6 µM
MIC (M. tuberculosis H37Rv [10]): > 25 mg/L

FC(F)(F)c1ccc(/C=N\Nc2ncnc3sc4c(c23)CCCC4)cc1 [II-24]
Selectivity Index Lab B ([1]; Lab B): 0.8
IC50 [1, 13]: 4 mg/L (≈ 10.6 µM)
Selectivity Index [2]: 4.1
GI50 (3T3 cells): 4 mg/L (≈ 10.6 µM)
GI50 (DU145 cells): 5.6 mg/L (≈ 14.9 µM)
GI50 (HT-29 cells): 2.6 mg/L (≈ 6.91 µM)
GI50 (MCF-7 cells): 2 mg/L (≈ 5.31 µM)
GI50 (M-14 cells): 6.4 mg/L (≈ 17 µM)
GI50 (K562 cells): 2.5 mg/L (≈ 6.64 µM)
GI50 (H460 cells): 5.8 mg/L (≈ 15.4 µM)
MIC [3]: 6 mg/L (≈ 15.9 µM)
Selectivity Index LORA [3]: 5.5 (5.5)
IC50 at 48 h ([4]; Cytotoxicity Macrophages IC50): 3.1 µM
GI50 (VERO cells [5]): 5.4 mg/L (≈ 14.3 µM)
MIC (M. tuberculosis H37Rv [6]): 6.1 mg/L (≈ 16.2 µM)
Selectivity Index H37Rv (M. tuberculosis H37Rv [6]): 5.5 (5.5)
IC50 [7]: 3 mg/L (≈ 7.97 µM)
IC50 ([8]; read-out: L. amazonensis IC50): 0.7 µM
IC50 [9]: 33.5 mg/L (≈ 89 µM)

Fc1ccc(C=NNc2ncnc3sc4c(c23)CCCC4)cc1 [II-26]
T. cruzi IC50 Lab A ([1]; Lab A): 1.9 mg/L
T. cruzi IC50 Lab B ([1]; Lab B): 6.0 mg/L
IC50 [2]: 3.2 µM
GI50 in indicated cell line: 3T3 (3T3 cells): 6.7 mg/L (≈ 20.5 µM)
GI50 in indicated cell line: DU145 (DU145 cells): 4.5 mg/L (≈ 13.8 µM)
GI50 in indicated cell line: HT-29 (HT-29 cells): 3.4 mg/L (≈ 10.4 µM)
GI50 in indicated cell line: MCF-7 (MCF-7 cells): 2.4 mg/L (≈ 7.35 µM)
GI50 in indicated cell line: M-14 (M-14 cells): 5.7 mg/L (≈ 17.5 µM)
GI50 in indicated cell line: K562 (K562 cells): 2.9 mg/L (≈ 8.88 µM)
GI50 in indicated cell line: H460 (H460 cells): 3.1 mg/L (≈ 9.5 µM)
IC50 (peritoneal macrophages): 3.1 µM
GI50 in indicated cell line: VERO (VERO cells [5]): 4.2 mg/L (≈ 12.9 µM)
MIC MABA (M. tuberculosis H37Rv [6]): 23.2 mg/L (≈ 71.1 µM)
Cytotoxicity VERO Lab B (VERO cells [11]): 6.0
Cytotoxicity VERO cell (VERO cell): 12.8 µg/mL

CC(C)(C)C=NNc1ncnc2sc3c(c12)CCCC3 [II-36]
T. cruzi IC50 Lab A ([1]; Lab A): 5.3 mg/L
IC50 [2]: 32.5 µM
GI50 in indicated cell line: 3T3 (3T3 cells): 2.1 mg/L (≈ 7.28 µM)
GI50 in indicated cell line: DU145 (DU145 cells): 7.2 mg/L (≈ 25 µM)
GI50 in indicated cell line: HT-29 (HT-29 cells): 9.5 mg/L (≈ 32.9 µM)
GI50 in indicated cell line: MCF-7 (MCF-7 cells): 7.5 mg/L (≈ 26 µM)
GI50 in indicated cell line: M-14 (M-14 cells): 9.4 mg/L (≈ 32.6 µM)
GI50 in indicated cell line: K562 (K562 cells): 7.9 mg/L (≈ 27.4 µM)
GI50 in indicated cell line: H460 (H460 cells): 7.1 mg/L (≈ 24.6 µM)
IC50 (peritoneal macrophages): 50.7 µM
GI50 in indicated cell line: VERO (VERO cells [5]): 9.7 mg/L (≈ 33.6 µM)
MIC MABA (M. tuberculosis H37Rv [6]): 86.3 mg/L (≈ 299 µM)
Cytotoxicity VERO cell (VERO cell): 29.6 µg/mL

C/C(=N/Nc1ncnc2sc3c(c12)CCCC3)c1ccccc1 [II-47]
Selectivity Index Lab B ([1]; Lab B): 0.9
IC50 [1, 12]: 1.3 mg/L (≈ 4.03 µM)
IC50 [1, 13]: 4.4 mg/L (≈ 13.6 µM)
Selectivity Index [2]: 5.6
GI50 (3T3 cells): 1.7 mg/L (≈ 5.27 µM)
GI50 (DU145 cells): 5.2 mg/L (≈ 16.1 µM)
GI50 (HT-29 cells): 7.1 mg/L (≈ 22 µM)
GI50 (MCF-7 cells): 5.3 mg/L (≈ 16.4 µM)
GI50 (M-14 cells): 6.4 mg/L (≈ 19.8 µM)
GI50 (K562 cells): 3.5 mg/L (≈ 10.9 µM)
GI50 (H460 cells): 5.1 mg/L (≈ 15.8 µM)
MIC [3]: 2.8 mg/L (≈ 8.68 µM)
Selectivity Index LORA [3]: 11.5
IC50 at 48 h ([4]; Cytotoxicity Macrophages IC50): 51.3 µM
GI50 (VERO cells [5]): 9.3 mg/L (≈ 28.8 µM)
MIC (M. tuberculosis H37Rv [6]): 23.4 mg/L (≈ 72.6 µM)
Selectivity Index H37Rv (M. tuberculosis H37Rv [6]): 1.4
IC50 [7]: 4 mg/L (≈ 12.4 µM)
IC50 ([8]; read-out: L. amazonensis IC50): 9.2 µM
IC50 [9]: 32.3 mg/L (≈ 100 µM)
